Measured values taken from publication PMC5074247 (Biopharmaceutics & Drug Disposition, 2016).
Where two headings read alike, the source gives them in different places.

Columns and labels:
[1] = type: in vivo, Sprague–Dawley rats; conditions: all time‐points measured; oral 1 mg/kg [^14C]teneligliptin; SD rats
[2] = SHRcp model ref 40; cited from earlier work
[3] = Whole‐body autoradiography of SD rats; type: in vivo, Sprague–Dawley rats; conditions: 168 h, oral 1 mg/kg, SD rat
[4] = Tissue distribution of radioactivity in SD rats; type: in vivo, Sprague–Dawley rats; conditions: oral 1 mg/kg
[5] = Volume of distribution at steady state after intravenous administration to rats; type: in vivo; conditions: rat, plasma
[6] = cited from earlier work

Cc1cc(N2CCN([C@@H]3CN[C@H](C(=O)N4CCSC4)C3)CC2)n(-c2ccccc2)n1 [Teneligliptin, 3‐[(2S,4S)‐4‐[4‐(3‐methyl‐1‐phenyl‐1H‐pyrazol‐5‐yl)piperazin‐1‐yl]pyrrolidin‐2‐ylcarbonyl] thiazolidine]
radioactive component in plasma and kidney (HPLC radiochromatogram) [1]: most abundant radioactive component
TNF‐α expression in the aorta [2]: decreased
endothelial dysfunction [2]: attenuated
radioactivity in autoradiogram ([3]; kidney): relatively high level of radioactivity
radioactivity in autoradiogram ([3]; liver): low level of radioactivity
radioactivity in autoradiogram ([3]; other tissues examined): negligible radioactivity
Concentration of radioactivity ([4]; Adrenal, 0.5 h): 1221.7 ± 289.0 ng eq/ml or g
Concentration of radioactivity ([4]; Adrenal, 5 h): 323.7 ± 90.7 ng eq/ml or g
Concentration of radioactivity ([4]; Adrenal, 12 h): 177.0 ± 22.7 ng eq/ml or g
Concentration of radioactivity ([4]; Adrenal, 24 h): 100.4 ± 8.8 ng eq/ml or g
Concentration of radioactivity ([4]; Adrenal, 72 h): 20.5 ± 4.3 (N.C.) ng eq/ml or g
Concentration of radioactivity ([4]; Adrenal, 168 h): 6.5 ± 4.5 (N.C.) ng eq/ml or g
Concentration of radioactivity ([4]; Aorta, 0.5 h): 488.7 ± 78.4 ng eq/ml or g
Concentration of radioactivity ([4]; Aorta, 5 h): 99.0 ± 46.0 ng eq/ml or g
Concentration of radioactivity ([4]; Aorta, 12 h): 35.7 ± 16.7 ng eq/ml or g
Concentration of radioactivity ([4]; Aorta, 24 h): 15.4 ± 5.2 ng eq/ml or g
Concentration of radioactivity ([4]; Bone, 0.5 h): 118.7 ± 22.2 ng eq/ml or g
Concentration of radioactivity ([4]; Bone, 5 h): 52.3 ± 19.9 ng eq/ml or g
Concentration of radioactivity ([4]; Bone, 12 h): 23.8 ± 7.5 ng eq/ml or g
Concentration of radioactivity ([4]; Epididymis, 0.5 h): 232.5 ± 61.7 ng eq/ml or g
Concentration of radioactivity ([4]; Epididymis, 5 h): 352.5 ± 76.0 ng eq/ml or g
Concentration of radioactivity ([4]; Epididymis, 12 h): 259.9 ± 44.4 ng eq/ml or g
Concentration of radioactivity ([4]; Epididymis, 24 h): 167.6 ± 35.4 ng eq/ml or g
Concentration of radioactivity ([4]; Epididymis, 72 h): 44.9 ± 3.8 (N.C.) ng eq/ml or g
Concentration of radioactivity ([4]; Epididymis, 168 h): 11.2 ± 3.3 (N.C.) ng eq/ml or g
Concentration of radioactivity ([4]; Heart, 0.5 h): 454.0 ± 85.0 ng eq/ml or g
Concentration of radioactivity ([4]; Heart, 5 h): 118.7 ± 34.6 ng eq/ml or g
Concentration of radioactivity ([4]; Heart, 12 h): 56.6 ± 8.9 ng eq/ml or g
Concentration of radioactivity ([4]; Heart, 24 h): 30.6 ± 2.7 ng eq/ml or g
Concentration of radioactivity ([4]; Heart, 72 h): 6.3 ± 1.1 (N.C.) ng eq/ml or g
Concentration of radioactivity ([4]; Kidney, 0.5 h): 4568.2 ± 609.1 ng eq/ml or g
Concentration of radioactivity ([4]; Kidney, 5 h): 3292.8 ± 76.8 ng eq/ml or g
Concentration of radioactivity ([4]; Kidney, 12 h): 2872.1 ± 419.4 ng eq/ml or g
Concentration of radioactivity ([4]; Kidney, 24 h): 2637.8 ± 410.3 ng eq/ml or g
Concentration of radioactivity ([4]; Kidney, 72 h): 1548.5 ± 192.3 (N.C.) ng eq/ml or g
Concentration of radioactivity ([4]; Kidney, 168 h): 606.1 ± 203.2 (N.C.) ng eq/ml or g
Concentration of radioactivity ([4]; Liver, 0.5 h): 4686.7 ± 932.3 ng eq/ml or g
Concentration of radioactivity ([4]; Liver, 5 h): 1753.2 ± 130.4 ng eq/ml or g
Concentration of radioactivity ([4]; Liver, 12 h): 814.1 ± 68.7 ng eq/ml or g
Concentration of radioactivity ([4]; Liver, 24 h): 389.5 ± 49.5 ng eq/ml or g
Concentration of radioactivity ([4]; Liver, 72 h): 250.2 ± 21.8 (N.C.) ng eq/ml or g
Concentration of radioactivity ([4]; Liver, 168 h): 92.4 ± 17.2 (N.C.) ng eq/ml or g
Concentration of radioactivity ([4]; Lung, 0.5 h): 1938.4 ± 456.7 ng eq/ml or g
Concentration of radioactivity ([4]; Lung, 5 h): 714.7 ± 116.7 ng eq/ml or g
Concentration of radioactivity ([4]; Lung, 12 h): 500.7 ± 40.2 ng eq/ml or g
Concentration of radioactivity ([4]; Lung, 24 h): 323.6 ± 46.7 ng eq/ml or g
Concentration of radioactivity ([4]; Lung, 72 h): 71.3 ± 12.9 (N.C.) ng eq/ml or g
Concentration of radioactivity ([4]; Lung, 168 h): 16.9 ± 5.9 (N.C.) ng eq/ml or g
Concentration of radioactivity ([4]; Pancreas, 0.5 h): 1253.9 ± 341.0 ng eq/ml or g
Concentration of radioactivity ([4]; Pancreas, 5 h): 298.9 ± 83.1 ng eq/ml or g
Concentration of radioactivity ([4]; Pancreas, 12 h): 107.8 ± 22.6 ng eq/ml or g
Concentration of radioactivity ([4]; Pancreas, 24 h): 50.8 ± 1.2 ng eq/ml or g
Concentration of radioactivity ([4]; Pancreas, 72 h): 8.3 ± 1.8 (N.C.) ng eq/ml or g
Concentration of radioactivity ([4]; Pancreas, 168 h): 3.4 ± 0.9 (N.C.) ng eq/ml or g
Concentration of radioactivity ([4]; Prostate, 0.5 h): 478.6 ± 167.1 ng eq/ml or g
Concentration of radioactivity ([4]; Prostate, 5 h): 169.0 ± 53.9 ng eq/ml or g
Concentration of radioactivity ([4]; Prostate, 12 h): 76.7 ± 18.8 ng eq/ml or g
Concentration of radioactivity ([4]; Prostate, 24 h): 38.6 ± 3.3 ng eq/ml or g
Concentration of radioactivity ([4]; Prostate, 72 h): 6.1 ± 1.3 (N.C.) ng eq/ml or g
Concentration of radioactivity ([4]; Prostate, 168 h): 2.2 ± 0.6 (N.C.) ng eq/ml or g
Concentration of radioactivity ([4]; Seminal vesicle, 0.5 h): 329.0 ± 105.4 ng eq/ml or g
Concentration of radioactivity ([4]; Seminal vesicle, 5 h): 133.8 ± 57.4 ng eq/ml or g
Concentration of radioactivity ([4]; Seminal vesicle, 12 h): 51.0 ± 6.3 ng eq/ml or g
Concentration of radioactivity ([4]; Seminal vesicle, 24 h): 18.7 ± 4.4 ng eq/ml or g
Concentration of radioactivity ([4]; Seminal vesicle, 72 h): 1.7 ± 2.0 (N.C.) ng eq/ml or g
Concentration of radioactivity ([4]; Skeletal muscle, 0.5 h): 242.5 ± 66.9 ng eq/ml or g
Concentration of radioactivity ([4]; Skeletal muscle, 5 h): 46.7 ± 20.1 ng eq/ml or g
Concentration of radioactivity ([4]; Skeletal muscle, 12 h): 16.7 ± 2.4 ng eq/ml or g
Concentration of radioactivity ([4]; Skeletal muscle, 24 h): 7.9 ± 1.1 ng eq/ml or g
Concentration of radioactivity ([4]; Skin, 0.5 h): 366.3 ± 77.9 ng eq/ml or g
Concentration of radioactivity ([4]; Skin, 5 h): 199.1 ± 47.5 ng eq/ml or g
Concentration of radioactivity ([4]; Skin, 12 h): 99.2 ± 14.6 ng eq/ml or g
Concentration of radioactivity ([4]; Skin, 24 h): 55.2 ± 2.9 ng eq/ml or g
Concentration of radioactivity ([4]; Skin, 72 h): 18.9 ± 1.6 (N.C.) ng eq/ml or g
Concentration of radioactivity ([4]; Skin, 168 h): 9.3 ± 3.3 (N.C.) ng eq/ml or g
Concentration of radioactivity ([4]; Spinal cord, 0.5 h): 28.2 ± 7.8 ng eq/ml or g
Concentration of radioactivity ([4]; Spinal cord, 5 h): 11.4 ± 5.8 ng eq/ml or g
Concentration of radioactivity ([4]; Spinal cord, 12 h): 4.9 ± 2.4 ng eq/ml or g
Concentration of radioactivity ([4]; Spinal cord, 24 h): 1.6 ± 1.1 ng eq/ml or g
Concentration of radioactivity ([4]; Spleen, 0.5 h): 1377.2 ± 292.1 ng eq/ml or g
Concentration of radioactivity ([4]; Spleen, 5 h): 510.7 ± 68.2 ng eq/ml or g
Concentration of radioactivity ([4]; Spleen, 12 h): 312.9 ± 31.8 ng eq/ml or g
Concentration of radioactivity ([4]; Spleen, 24 h): 217.7 ± 21.3 ng eq/ml or g
Concentration of radioactivity ([4]; Spleen, 72 h): 62.4 ± 7.3 (N.C.) ng eq/ml or g
Concentration of radioactivity ([4]; Spleen, 168 h): 17.0 ± 4.3 (N.C.) ng eq/ml or g
Concentration of radioactivity ([4]; Submaxillary gland, 0.5 h): 1009.9 ± 265.5 ng eq/ml or g
Concentration of radioactivity ([4]; Submaxillary gland, 5 h): 309.9 ± 62.2 ng eq/ml or g
Concentration of radioactivity ([4]; Submaxillary gland, 12 h): 123.7 ± 24.6 ng eq/ml or g
Concentration of radioactivity ([4]; Submaxillary gland, 24 h): 78.5 ± 12.3 ng eq/ml or g
Concentration of radioactivity ([4]; Submaxillary gland, 72 h): 18.0 ± 5.0 (N.C.) ng eq/ml or g
Concentration of radioactivity ([4]; Submaxillary gland, 168 h): 6.9 ± 2.5 (N.C.) ng eq/ml or g
Concentration of radioactivity ([4]; Testis, 0.5 h): 68.5 ± 21.6 ng eq/ml or g
Concentration of radioactivity ([4]; Testis, 5 h): 128.2 ± 41.8 ng eq/ml or g
Concentration of radioactivity ([4]; Testis, 12 h): 49.6 ± 10.4 ng eq/ml or g
Concentration of radioactivity ([4]; Testis, 24 h): 18.7 ± 2.4 ng eq/ml or g
Concentration of radioactivity ([4]; Testis, 72 h): 8.3 ± 10.2 (N.C.) ng eq/ml or g
Concentration of radioactivity ([4]; Thymus, 0.5 h): 538.8 ± 138.4 ng eq/ml or g
Concentration of radioactivity ([4]; Thymus, 5 h): 298.8 ± 61.8 ng eq/ml or g
Concentration of radioactivity ([4]; Thymus, 12 h): 181.8 ± 19.4 ng eq/ml or g
Concentration of radioactivity ([4]; Thymus, 24 h): 132.1 ± 3.9 ng eq/ml or g
Concentration of radioactivity ([4]; Thymus, 72 h): 37.5 ± 8.1 (N.C.) ng eq/ml or g
Concentration of radioactivity ([4]; Thymus, 168 h): 10.6 ± 3.3 (N.C.) ng eq/ml or g
Concentration of radioactivity ([4]; Thyroid, 0.5 h): 826.4 ± 164.2 ng eq/ml or g
Concentration of radioactivity ([4]; Thyroid, 5 h): 279.2 ± 83.8 ng eq/ml or g
Concentration of radioactivity ([4]; Thyroid, 12 h): 124.3 ± 25.9 ng eq/ml or g
Concentration of radioactivity ([4]; Thyroid, 24 h): 55.2 ± 7.4 ng eq/ml or g
time of maximum tissue concentration ([4]; large intestine): 12 h
radioactivity concentration as % of the maximum concentration ([4]; other tissues, 168 h): ≤ 3%
plasma radioactivity ([4]; plasma, 72 h): undetectable
time of maximum tissue concentration ([4]; testis, epididymis and cecum): 5 h
Vd [5]: 8.9 L/kg
exposure versus healthy subjects ([6]; patients with hepatic disorders ref 18): 1.59 fold
exposure versus healthy subjects ([6]; patients with renal disorders ref 17): 1.68 fold
